Assay results reported in patent US8633204B2 (Pfizer Inc., priority 2006, dated 2014).

Tests used:
PI3-Kα = PI3-Kα (Mus musculus (Mouse), UniProt P42337); assay: PI3-Kα Biochemical Assay (fluorescence polarization kinase assay)
Summary of the method: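 Co-expressed mouse p110/p85 PI3-Kα (4 nM stock) acting on PI(4,5)P2 (60 μM stock) with ATP/MgCl2 in HEPES pH 7.4 buffer, 35 min at room temperature, then EDTA stop. PI(3,4,5)P3 product detected by displacement of TAMRA-PIP3 from Grip1 PH domain (FP, 535/580 nm). IC50 from sigmoidal fit of % inhibition.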

[1] = system: PI3-K in BT20 cells (phosphorylation of AKT at serine 473); assay: PI3-Kα Cellular Assay (AKT Ser473 phosphorylation ELISA in BT20 cells); assay type: cell-based, human; conditions: Homo sapiens, BT-20, pAKT Ser473 ELISA, 1 hour incubation
Summary of the method: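 Cells seeded overnight in 0.5% FBS, then exposed 1 h at 37 °C to an 11-concentration 1:3 dilution series, in duplicate.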

PI3-Kα, sequence (P42337 whole entry, the tested form may be a part): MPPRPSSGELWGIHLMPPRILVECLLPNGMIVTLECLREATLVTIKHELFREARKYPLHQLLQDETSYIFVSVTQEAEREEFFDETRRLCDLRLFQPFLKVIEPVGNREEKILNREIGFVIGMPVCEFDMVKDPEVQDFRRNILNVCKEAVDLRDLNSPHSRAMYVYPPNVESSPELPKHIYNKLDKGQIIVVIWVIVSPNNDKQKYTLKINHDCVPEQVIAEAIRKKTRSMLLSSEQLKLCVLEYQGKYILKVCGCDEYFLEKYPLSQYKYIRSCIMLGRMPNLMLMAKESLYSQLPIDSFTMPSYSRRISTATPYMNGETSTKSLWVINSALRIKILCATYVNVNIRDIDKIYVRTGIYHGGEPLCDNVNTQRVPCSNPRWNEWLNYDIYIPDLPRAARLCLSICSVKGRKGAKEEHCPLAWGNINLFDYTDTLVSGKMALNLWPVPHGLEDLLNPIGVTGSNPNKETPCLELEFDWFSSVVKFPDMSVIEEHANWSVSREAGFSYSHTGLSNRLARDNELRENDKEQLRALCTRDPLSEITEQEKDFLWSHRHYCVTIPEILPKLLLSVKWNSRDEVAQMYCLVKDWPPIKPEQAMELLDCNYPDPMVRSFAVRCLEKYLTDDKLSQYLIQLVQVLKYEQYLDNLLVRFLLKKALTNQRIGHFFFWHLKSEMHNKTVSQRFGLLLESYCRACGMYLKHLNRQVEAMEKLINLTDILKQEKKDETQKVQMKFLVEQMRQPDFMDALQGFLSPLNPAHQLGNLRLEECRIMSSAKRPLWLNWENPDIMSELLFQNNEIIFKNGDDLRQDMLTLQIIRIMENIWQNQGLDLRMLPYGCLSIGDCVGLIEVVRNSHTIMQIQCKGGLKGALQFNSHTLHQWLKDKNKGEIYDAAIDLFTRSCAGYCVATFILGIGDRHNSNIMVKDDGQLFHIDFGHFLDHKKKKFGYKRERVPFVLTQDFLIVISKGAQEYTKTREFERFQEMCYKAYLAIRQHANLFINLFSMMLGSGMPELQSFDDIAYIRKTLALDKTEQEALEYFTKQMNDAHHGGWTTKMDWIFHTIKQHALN
PI3-Kα, sequence (P26450 whole entry partner, the tested form may be a part): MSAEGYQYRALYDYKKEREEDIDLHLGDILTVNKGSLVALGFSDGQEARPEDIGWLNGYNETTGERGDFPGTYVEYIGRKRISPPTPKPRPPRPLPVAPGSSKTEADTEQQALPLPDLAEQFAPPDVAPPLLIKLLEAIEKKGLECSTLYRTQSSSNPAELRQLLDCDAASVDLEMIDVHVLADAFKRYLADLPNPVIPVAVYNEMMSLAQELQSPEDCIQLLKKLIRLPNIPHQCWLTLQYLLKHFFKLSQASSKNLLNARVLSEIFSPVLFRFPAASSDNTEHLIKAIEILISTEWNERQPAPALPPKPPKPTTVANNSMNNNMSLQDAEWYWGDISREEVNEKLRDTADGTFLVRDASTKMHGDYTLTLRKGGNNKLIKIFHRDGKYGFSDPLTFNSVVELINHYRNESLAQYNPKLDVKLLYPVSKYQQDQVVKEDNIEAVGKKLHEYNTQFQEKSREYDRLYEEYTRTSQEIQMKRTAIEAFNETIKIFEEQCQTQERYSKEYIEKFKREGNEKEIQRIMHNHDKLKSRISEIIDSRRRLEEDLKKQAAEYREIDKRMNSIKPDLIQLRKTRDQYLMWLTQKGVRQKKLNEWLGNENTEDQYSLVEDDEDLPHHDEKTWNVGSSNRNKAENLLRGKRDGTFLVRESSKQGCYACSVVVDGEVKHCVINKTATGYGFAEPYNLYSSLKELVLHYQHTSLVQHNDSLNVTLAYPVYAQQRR

SMILES | IC50 (PI3-Kα) | IC50 [1]
Cc1nc(N)nc2c1cc(-c1cnn(CC(C)(C)O)c1)c(=O)n2C1CCCC1 [Compound 240, 2-Amino-8-cyclopentyl-6-[1-(2-hydroxy-2-methyl-propyl)-1H-pyrazol-4-yl]-4-methyl-8H-pyrido[2,3-d]pyrimidin-7-one] | 89 nM | 101 nM
CCNc1nc(C)c2cc(-c3cccnc3N)c(=O)n(C3CCCC3)c2n1 [Compound 131, 6-(2-aminopyridin-3-yl)-8-cyclopentyl-2-(ethylamino)-4-methylpyrido[2,3-d]pyrimidin-7(8H)-one] | 3400 nM | 7980 nM
Cc1nc(N)nc2c1cc(-c1cnn(C(=O)OC(C)(C)C)c1)c(=O)n2N1CCCC1 [Compound 192, Tert-butyl-4-(2-amino-4-methyl-7-oxo-8-(pyrrolidin-1-yl)-7,8-dihydropyrido[2,3-d]pyrimidin-6-yl)-1H-pyrazole-1-carboxylate] | 93 nM | 5.08 nM
CCNc1nc(C)c2cc(CCC(=O)O)c(=O)n(C3CCCC3)c2n1 [Compound 130, 3-(8-Cyclopentyl-2-(ethylamino)-4-methyl-7-oxo-7,8-dihydropyrido[2,3-d]pyrimidin-6-yl)propanoic acid] | 54 nM | 10000 nM
Cc1nc(N)nc2c1cc(-c1cncc(N)n1)c(=O)n2C1CCCC1 [Compound 230, 2-amino-6-(6-aminopyrazin-2-yl)-8-cyclopentyl-4-methylpyrido[2,3-d]pyrimidin-7(8H)-one] | 20 nM | 33.9 nM
CCNc1nc(C)c2cc(-c3cccc(OC)c3)c(=O)n(C3CCCC3)c2n1 [Compound 142, 8-cyclopentyl-2-(ethylamino)-6-(3-methoxyphenyl)-4-methylpyrido[2,3-d]pyrimidin-7(8H)-one] | 792 nM | 1390 nM
COc1ccc(-c2cc3c(C)nc(N)nc3n(CC3CCCO3)c2=O)cn1 (stereo not shown) [Compound 224, 2-amino-6-(6-methoxypyridin-3-yl)-4-methyl-8-((tetrahydrofuran-2-yl)methyl)pyrido[2,3-d]pyrimidin-7(8H)-one] | 21 nM | 120 nM
CNc1nc(C)c2cc(-c3c[nH]c(C)n3)c(=O)n(C3CCCC3)c2n1 [Compound 245, 8-Cyclopentyl-4-methyl-2-methylamino-6-(2-methyl-1H-imidazol-4-yl)-8H-pyrido[2,3-d]pyrimidin-7-one] | 67 nM | 181 nM
CNc1nc(C)c2cc(-c3ncccc3F)c(=O)n(C3CCCC3)c2n1 [Compound 134, 8-cyclopentyl-6-(3-fluoropyridin-2-yl)-4-methyl-2-(methylamino)pyrido[2,3-d]pyrimidin-7(8H)-one] | 2100 nM | 8300 nM
Cc1nc(N)nc2c1cc(-c1cn[nH]c1)c(=O)n2C1CCOCC1 [Compound 199, 2-amino-4-methyl-6-(1H-pyrazol-4-yl)-8-(tetrahydro-2H-pyran-4-yl)pyrido[2,3-d]pyrimidin-7(8H)-one] | 18.5 nM | 19.9 nM
CNc1nc(C)c2cc(C#N)c(=O)n(C3CCCC3)c2n1 [Compound 133, 2-Methylamino-6-carbonitrile-8-cyclopentyl-4-methylpyrido[2,3-d]pyrimidin-7(8H)-one] | 60 nM | 603 nM
COc1ccc(-c2cc3c(C)nc(N)nc3n(CC(F)(F)F)c2=O)cn1 [Compound 198, 2-amino-6-(6-methoxypyridin-3-yl)-4-methyl-8-(2,2,2-trifluoroethyl)pyrido[2,3-d]pyrimidin-7(8H)-one] | 130 nM | 262 nM
COc1ccc(-c2cc3c(C)nc(NCC(F)F)nc3n([C@H]3CC[C@H](O)CC3)c2=O)cn1 [Compound 275, 2-(2,2-Difluoroethylamino)-8-(4-hydroxycyclohexyl)-6-(6-methoxypyridin-3-yl)-4-methylpyrido[2,3-d]pyrimidin-7(8H)-one] | 12 nM | 46.8 nM
CNc1nc(C)c2cc(Br)c(=O)n(CC3CCOC3)c2n1 (stereo not shown) [Compound 214, 6-bromo-4-methyl-2-(methylamino)-8-((tetrahydrofuran-3-yl)methyl)pyrido[2,3-d]pyrimidin-7(8H)-one] | 48 nM | 594 nM
Cc1nc(N)nc2c1cc(-c1ccc(OC(C)C)nc1)c(=O)n2[C@H]1CC[C@H](O)CC1 [Compound 188, 2-amino-8(trans-4-hydroxycyclohexyl)-6-(6-isopropoxypyridin-3-yl)-4-methylpyrido[2,3-d]pyrimidin-7(8H)-one] | 9.4 nM | 71.8 nM
CNc1nc(C)c2cc(-c3cnn(CC(F)F)c3)c(=O)n(C3CCCC3)c2n1 [Compound 236, 8-Cyclopentyl-6-[1-(2,2-difluoro-ethyl)-1H pyrazol-4-yl]-4-methyl 2-methylamino-8H-pyrido[2,3 d]pyrimidin-7-one] | 46 nM | 10000 nM
CNc1nc(C)c2cc(-c3cncnc3)c(=O)n(C3CCCC3)c2n1 [Compound 107, 8-Cyclopentyl-4-methyl-2-(methylamino)-6-(pyrimidin-5-yl)pyrido[2,3-d]pyrimidin-7(8H)-one] | 23 nM | 305 nM
CO[C@H]1CC[C@H](n2c(=O)c(-c3cc[nH]n3)cc3c(C)nc(N)nc32)CC1 [Compound 187, 2-amino-8-(trans-4-methoxycyclohexyl)-4-methyl-6-(1H-pyrazol-3-yl)pyrido[2,3-d]pyrimidin-7(8H)-one] | 9.5 nM | 17.2 nM
COc1ccc(-c2cc3c(C)nc(N)nc3n(C3CCNC3)c2=O)cn1 (stereo not shown) [Compound 247, 2-Amino-6-(6-methoxy-pyridin-3-yl)-4-methyl-8-pyrrolidin-3-yl-8H-pyrido[2,3-d]pyrimidin-7-one] | 200 nM | 671 nM

These reach a lower IC50 (PI3-Kα). Values come first.

IC50 (PI3-Kα) | IC50 [1] | SMILES
0.731 nM | 1.76 nM | CNc1nc(C)c2cc(-c3cccc(O)c3)c(=O)n(C3CCCC3)c2n1 [Compound 146, 8-cyclopentyl-6-(3-hydroxyphenyl)-4-methyl-2-(methylamino)pyrido[2,3-d]pyrimidin-7(8H)-one]
8.2 nM | 42 nM | Cc1nc(N)nc2c1cc(-c1cnc3ccccc3c1)c(=O)n2[C@H]1CC[C@H](O)CC1 [Compound 271, 2-amino-8-(trans-4-hydroxycyclohexyl)-4-methyl-6-(quinolin-3-yl)pyrido[2,3-d]pyrirnidin-7(8H)-one]
2 nM | 9.57 nM | COc1ncc(-c2cc3c(C)nc(N)nc3n(C3CCCC3)c2=O)cn1 [Compound 255, 2-amino-8-cyclopentyl-6-(2-methoxypyrimidin-5-yl)-4-methylpyrido[23-d]pyrimidin-7(8H)-one]
3.7 nM | 15.3 nM | Cc1nc(N)nc2c1cc(-c1cnc3[nH]ccc3c1)c(=O)n2C1CCOCC1 [Compound 201, 2-amino-4-methyl-6-(1H-pyrrolo[2,3-b]pyridin-5-yl)-8-(tetrahydro-2H-pyran-4-yl)pyrido[2,3-d]pyrimidin-7(8H)-one]
2.14 nM | 12.6 nM | COc1ncc(-c2cc3c(C)nc(N)nc3n([C@H]3C[C@H](OCC(N)=O)C3)c2=O)cc1F [Compound 318, 2-({trans-3-(2-amino-6-(5-fluoro-6-methoxypyridin-3-yl)-4-methyl-7-oxopyrido[2,3-yl]pyrimidin-8(7H)-yl)cyclobutyl}oxy)acetamide]
8.9 nM | 41.4 nM | CNc1nc(C)c2cc(-c3ccc(OC)nc3)c(=O)n(CCC3CC3)c2n1 [Compound 232, 8-(2-Cyclopropyl-ethyl)-6-(6-methoxy-pyridin-3-yl)-4-methyl-2-methylamino-8H-pyrido[2,3-d]pyrimidin-7-one]
4 nM | 2750 nM | CCNc1nc(C)c2cc(CCCO)c(=O)n(C3CCCC3)c2n1 [Compound 129, 8-Cyclopentyl-2-(ethylamino)-6-(3-hydroxypropyl)-4-methylpyrido[2,3-d]pyrimidin-7(8H)-one]
7 nM | 127 nM | COc1ccc(-c2cc3c(C)nc(N)nc3n(C3CCN(C(C)=O)C3)c2=O)cn1 (stereo not shown) [Compound 248, 8-(1-Acetyl-pyrrolidin-3-yl)-2-amin-6-(6-methoxy-pyridin-3-yl)-4-methyl-8H-pyrido[2,3-d]pyrimidin-7-one]
0.989 nM | 19 nM | COc1cc(-c2cc3c(C)nc(N)nc3n(C3CCCC3)c2=O)ccc1O [Compound 137, 2-amino-8-cyclopentyl-6-(4-hydroxy-3-methoxyphenyl)-4-methylpyrido[2,3-d]pyrimidin-7(8H)-one]
2.7 nM | 21.2 nM | CCOc1ccc(-c2cc3c(C)nc(N)nc3n([C@H]3CC[C@H](O)CC3)c2=O)cn1 [Compound 189, 2-amino-6-(6-ethoxypyridin-3-yl)-8-(trans-4-hydroxycyclohexyl)-4-methylpyrido[2,3-d]pyrimidin-7(8H)-one]
5.91 nM | 110 nM | COc1ncc(-c2cc3c(C)nc(N)nc3n([C@H]3C[C@H](OCC(N)=O)C3)c2=O)cn1 [Compound 319, 2-({trans-3-(2-amino-6-(2-methoxypyrimidin-5-yl)-4-methyl-7-oxopyrido[2,3-d]pyrimidin-8(7H)-yl]cydobutyl}oxy)acetamide]
8 nM | 2.58 nM | CNc1nc(C)c2cc(-c3cn[nH]c3)c(=O)n(C3CCCC3)c2n1 [Compound 124, 8-cyclopentyl-4-methyl-2-(methylamino)-6-(1H-pyrazol-4-yl)pyrido[2,3-d]pyrimidin-7(8H)-one]
2.9 nM | 30.5 nM | Cc1nc(N)nc2c1cc(C(=O)Nc1ccn[nH]1)c(=O)n2C(C)C [Compound 279, 2-amino-8-isopropyl-4-methyl-7-oxo-N-1H-pyrazol-5-yl-7,8-dihydropyrido[2,3-d]pyrimidine-6-carboxamide]
